Each structure is given as a SMILES string. Where two headings read alike, the source gives them in different places.

For the assay, the target named is T1, F508del (Homo sapiens, UniProt P13569, DEL508-508).
T1 construct: expressed in transfected cells
Briefly: Protocol 2: FRET membrane potential optical assay (VIPR), identification of correction compounds. The class given is cell-based. The gist of the method:
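Correction of the F508del trafficking defect is scored as forskolin (10 μM)/genistein (20 μM)-stimulated Cl^− efflux in NIH3T3 mouse fibroblasts after a 16 hr, 37° C. compound exposure. Depolarization was followed optically using voltage-sensing FRET dyes.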

Where [1] appears, read: Table 3, compounds of Table 1 as modulators of CFTR activity, protocol not stated.
Where [2] appears, read: F508del CFTR modulator activity, compounds of Table 1, read-out: EC30.

T1 sequence (P13569 with tags, fused parts or gaps DEL508-508): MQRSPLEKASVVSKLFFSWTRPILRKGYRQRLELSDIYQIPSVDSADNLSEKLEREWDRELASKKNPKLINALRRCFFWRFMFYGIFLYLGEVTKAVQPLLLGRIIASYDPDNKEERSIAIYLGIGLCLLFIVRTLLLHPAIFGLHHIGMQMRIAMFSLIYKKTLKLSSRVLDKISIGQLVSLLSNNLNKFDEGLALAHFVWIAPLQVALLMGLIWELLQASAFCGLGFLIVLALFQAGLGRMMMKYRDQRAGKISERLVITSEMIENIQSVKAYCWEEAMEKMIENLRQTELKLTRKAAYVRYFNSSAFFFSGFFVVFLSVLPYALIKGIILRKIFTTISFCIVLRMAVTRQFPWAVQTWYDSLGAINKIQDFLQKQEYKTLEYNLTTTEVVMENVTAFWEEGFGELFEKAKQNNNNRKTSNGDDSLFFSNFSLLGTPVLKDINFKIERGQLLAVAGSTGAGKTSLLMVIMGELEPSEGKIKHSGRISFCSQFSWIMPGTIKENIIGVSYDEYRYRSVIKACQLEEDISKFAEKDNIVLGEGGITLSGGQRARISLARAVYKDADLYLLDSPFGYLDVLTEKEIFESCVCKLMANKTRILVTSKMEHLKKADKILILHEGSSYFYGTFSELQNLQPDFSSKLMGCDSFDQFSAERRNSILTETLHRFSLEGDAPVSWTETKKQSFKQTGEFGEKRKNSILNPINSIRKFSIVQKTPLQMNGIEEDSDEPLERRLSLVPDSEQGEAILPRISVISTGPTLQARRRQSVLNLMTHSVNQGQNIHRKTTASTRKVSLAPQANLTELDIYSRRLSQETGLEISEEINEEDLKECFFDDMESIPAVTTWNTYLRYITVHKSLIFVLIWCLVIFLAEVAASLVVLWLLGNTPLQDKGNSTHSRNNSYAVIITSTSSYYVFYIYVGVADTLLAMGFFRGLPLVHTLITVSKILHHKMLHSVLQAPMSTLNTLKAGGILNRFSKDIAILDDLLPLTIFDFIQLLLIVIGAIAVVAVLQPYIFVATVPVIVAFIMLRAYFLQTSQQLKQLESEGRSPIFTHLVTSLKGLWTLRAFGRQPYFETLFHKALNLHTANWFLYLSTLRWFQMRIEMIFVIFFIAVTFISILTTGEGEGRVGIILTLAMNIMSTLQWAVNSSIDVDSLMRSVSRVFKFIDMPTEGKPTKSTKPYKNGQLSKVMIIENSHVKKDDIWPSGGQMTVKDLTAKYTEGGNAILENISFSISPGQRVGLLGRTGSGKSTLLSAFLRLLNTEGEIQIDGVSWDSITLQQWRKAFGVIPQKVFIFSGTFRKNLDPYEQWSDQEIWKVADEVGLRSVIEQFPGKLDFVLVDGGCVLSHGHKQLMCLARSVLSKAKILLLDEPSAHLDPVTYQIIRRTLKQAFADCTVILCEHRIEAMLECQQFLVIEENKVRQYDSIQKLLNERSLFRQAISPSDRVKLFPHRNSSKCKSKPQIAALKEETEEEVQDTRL

For the molecule `C[C@H](c1ccccc1)n1nc(C(C)(C)C)cc1C(=O)NS(=O)(=O)c1cccc(N)c1` [Compound 540, N-(3-aminophenyl)sulfonyl-5-tert-butyl-2-[1(1R)-1-phenylethyl]pyrazole-3-carboxamide], the EC30 entry under setting [1] was “+ (“+” means greater than 10 uM)”.
In the case of `CC1CN(c2ncccc2C(=O)NS(=O)(=O)c2cccc(OC3CC=CC3)n2)C(C)(C)C1` (stereo not drawn) [Compound 2317, N-[(6-cyclopent-3-en-1-yloxy-2-pyridyl)sulfonyl]-2-(2,2,4-trimethylpyrrolidin-1-yl)pyridine-3-carboxamide], the EC30 under setting [2] is < 3000 nM.
The same measure, in the same setting: the same measure for `CC1CN(c2ncccc2C(=O)NS(=O)(=O)c2cccc(N3CC[C@@H](NC(=O)OC(C)(C)C)C3)n2)C(C)(C)C1` (stereo partly drawn) [Compound 2537, tert-butyl N-[(3R)-1-[6-[[2-(2,2,4-trimethylpyrrolidin-1-yl)pyridine-3-carbonyl]sulfamoyl]-2-pyridyl]pyrrolidin-3-yl]carbamate]: 3000 to 10000 nM; for `C[C@@H]1CN(c2nc(-c3ccc(F)cc3F)ccc2C(=O)NS(=O)(=O)c2ccc[nH]c2=O)C(C)(C)C1` [Compound 2159, 6-(2,4-difluorophenyl)-N-[(2-oxo-1H-pyridin-3-yl)sulfonyl]-2-[(4S)-2,2,4-trimethylpyrrolidin-1-yl]pyridine-3-carboxamide]: < 3000 nM; for `COc1cc(C)c(-c2ccc(C(=O)NS(=O)(=O)c3cccnc3N)c(N3C[C@@H](C)CC3(C)C)n2)c(C)c1` [Compound 2607, N-[(2-amino-3-pyridyl)sulfonyl]-6-(4-methoxy-2,6-dimethyl-phenyl)-2-[(4S)-2,2,4-trimethylpyrrolidin-1-yl]pyridine-3-carboxamide]: < 3000 nM.
For `Cc1cc(C)c(Oc2nc(C3CCC(F)(F)CC3)ccc2C(=O)NS(=O)(=O)c2cccc(N)n2)c(C)c1` [Compound 783, N-[(6-amino-2-pyridyl)sulfonyl]-6-(4,4-difluorocyclohexyl)-2-(2,4,6-trimethylphenoxy)pyridine-3-carboxamide], the EC30 result under setting [1] is on record as “+++ (“+++” means <3 uM)”.
Still for that read-out and setting: next, `Cc1cc(C)c(Oc2nn(C(C)(C)C)cc2C(=O)NS(=O)(=O)c2cccc(N)n2)c(C)c1` [Compound 256, N-[(6-amino-2-pyridyl)sulfonyl]-1-tert-butyl-3-(2,4,6-trimethylphenoxy)pyrazole-4-carboxamide]: “+++ (“+++” means <3 uM)”; `CCOc1ccc(-c2ccc(C(=O)NS(=O)(=O)c3cccc(N)n3)c(-c3ccc(C)cc3)n2)cc1` [Compound 409, N-[(6-amino-2-pyridyl)sulfonyl]-6-(4-ethoxyphenyl)-2-(p-tolyl)pyridine-3-carboxamide]: “+ (“+” means greater than 10 uM)”.
Take `C[C@@H]1CN(c2nc(-c3ccc(CO)cc3)ccc2C(=O)NS(=O)(=O)c2cccnc2N)C(C)(C)C1` [Compound 2590, N-[(2-amino-3-pyridyl)sulfonyl]-6-[4-(hydroxymethyl)phenyl]-2-[(4S)-2,2,4-trimethylpyrrolidin-1-yl]pyridine-3-carboxamide]: under setting [2], the EC30 was < 3000 nM.
For the molecule `CC1CN(c2ncccc2C(=O)NS(=O)(=O)c2cccc(N[C@H](C)C3CCCCC3)n2)C(C)(C)C1` (stereo partly drawn) [Compound 1996, N—[[6-[[(1R)-1-cyclohexylethyl]amino]-2-pyridyl]sulfonyl]-2-(2,2,4-trimethylpyrrolidin-1-yl)pyridine-3-carboxamide], the EC30 under setting [2] is < 3000 nM.
For `Cc1nc2cc(Oc3cccc(S(=O)(=O)NC(=O)c4cccnc4N4CC(C)CC4(C)C)n3)ccc2s1` (stereo not drawn) [Compound 2729], under setting [2], the EC30 was < 3000 nM.
Still for that read-out and setting: next, `Cc1cc(-c2ccc(C(=O)NS(=O)(=O)c3cccc(N)n3)c(N3C[C@@H](C)CC3(C)C)n2)cnc1OC(C)C` [Compound 2170, N-[(6-amino-2-pyridyl)sulfonyl]-6-(6-isopropoxy-5-methyl-3-pyridyl)-2-[(4S)-2,2,4-trimethylpyrrolidin-1-yl]pyridine-3-carboxamide]: < 3000 nM.
Consider `Cc1cc(C)c(Oc2nc(C(C)(C)C)ccc2C(=O)NS(=O)(=O)c2cccc3[nH]ccc23)c(C)c1` [Compound 275, 6-tert-butyl-N-(1H-indol-4-ylsulfonyl)-2-(2,4,6-trimethylphenoxy)pyridine-3-carboxamide], for which the EC30 result under setting [1] is “+++ (“+++” means <3 uM)”.
Regarding `CCOCCOCCOc1ccc(C(=O)NS(=O)(=O)c2cccnc2N)c(N2C[C@@H](C)CC2(C)C)n1` [Compound 2700], the EC30 under setting [2] was < 3000 nM.
As for `COc1c(C)cccc1S(=O)(=O)NC(=O)c1cc(C(C)(C)C)nn1Cc1c(C)cccc1C` [Compound 59, 5-tert-butyl-2-[(2,6-dimethylphenyl)methyl]-N-(2-methoxy-3-methyl-phenyl)sulfonyl-pyrazole-3-carboxamide], the EC30 result under setting [1] is “+++ (“+++” means <3 uM)”.
As for `CC(C)Cn1cc(-c2ccc(C(=O)NS(=O)(=O)c3cccnc3N)c(N3C[C@@H](C)CC3(C)C)n2)cn1` [Compound 2231, N-[(2-amino-3-pyridyl)sulfonyl]-6-(1-isobutylpyrazol-4-yl)-2-[(4S)-2,2,4-trimethylpyrrolidin-1-yl]pyridine-3-carboxamide], under setting [2], the EC30 was < 3000 nM.
With `Cc1cc(C)c(CN2Cc3ccccc3C2C(=O)NS(=O)(=O)c2cccc(N)n2)c(C)c1` (stereo not drawn) [Compound 73, N-[(6-amino-2-pyridyl)sulfonyl]-2-[(2,4,6-trimethylphenyl)methyl]isoindoline-1-carboxamide], the EC30 entry under setting [1] was “+++ (“+++” means <3 uM)”.
Consider `Cc1cc(C)c(Cn2c(C(=O)NS(=O)(=O)c3cccc(N)c3)nc3ccccc32)c(C)c1` [Compound 71, N-(3-aminophenyl)sulfonyl-1-[(2,4,6-trimethylphenyl)methyl]benzimidazole-2-carboxamide], for which the EC30 result under setting [1] is given as “+++ (“+++” means <3 uM)”.
`CC(C)Oc1ccc(-c2ccc(C(=O)NS(=O)(=O)c3ccc[nH]c3=O)c(N3C[C@@H](C)CC3(C)C)n2)cn1` [Compound 497, 6-(6-isopropoxy-3-pyridyl)-N-[(2-oxo-1H-pyridin-3-yl)sulfonyl]-2-[(4S)-2,2,4-trimethylpyrrolidin-1-yl]pyridine-3-carboxamide]: the EC30 result under setting [1] was “+++ (“+++” means <3 uM)”.
On the same count and under the same terms, next, `Cc1cc(C)c(Oc2nc(-c3cc(F)cc(OCC(C)C)c3)ccc2C(=O)NS(=O)(=O)c2cc[nH]n2)c(C)c1` [Compound 318, 6-(3-fluoro-5-isobutoxy-phenyl)-N-(1H-pyrazol-3-ylsulfonyl)-2-(2,4,6-trimethylphenoxy)pyridine-3-carboxamide]: “+++ (“+++” means <3 uM)”; `CC(C)COc1cc(F)cc(-c2ccc(C(=O)NS(=O)(=O)c3cccc(N)n3)c(N(C)C(C)C3CC3)n2)c1` (stereo not drawn) [Compound 516, N-[(6-amino-2-pyridyl)sulfonyl]-2-[1-cyclopropylethyl(methyl)amino]-6-(3-fluoro-5-isobutoxy-phenyl)pyridine-3-carboxamide]: “+++ (“+++” means <3 uM)”.
On the same count and under the same terms, next, `CNc1cccc(S(=O)(=O)NC(=O)C2Cc3ccccc3CCN2Cc2c(C)cc(C)cc2C)n1` (stereo not drawn) [Compound 747, N-[[6-(methylamino)-2-pyridyl]sulfonyl]-3-[(2,4,6-trimethylphenyl)methyl]-1,2,4,5-tetrahydro-3-benzazepine-4-carboxamide]: “+++ (“+++” means <3 uM)”; `CC1CN(c2nc(-c3ccc(OC(C)C)nc3)ccc2C(=O)NS(=O)(=O)c2cccc(N)n2)CC(C)(C)C1` (stereo not drawn) [Compound 520, N-[(6-amino-2-pyridyl)sulfonyl]-6-(6-isopropoxy-3-pyridyl)-2-(3,3,5-trimethyl-1-piperidyl)pyridine-3-carboxamide]: “+++ (“+++” means <3 uM)”; `Cc1cc(C)c(Cn2c(C(=O)NS(=O)(=O)c3cccc(N)c3)cc3c(C#N)cccc32)c(C)c1` [Compound 306, N-(3-aminophenyl)sulfonyl-4-cyano-1-[(2,4,6-trimethylphenyl)methyl]indole-2-carboxamide]: “+++ (“+++” means <3 uM)”.
The same measure, in the same setting: the same measure for `COC(=O)[C@@H]1CCCN1c1nc(-c2cc(F)cc(OCC(C)C)c2)ccc1C(=O)NS(=O)(=O)c1cccc(N)n1` [Compound 385, methyl (2S)-1-[3-[(6-amino-2-pyridyl)sulfonylcarbamoyl]-6-(3-fluoro-5-isobutoxy-phenyl)-2-pyridyl]pyrrolidine-2-carboxylate]: “+++ (“+++” means <3 uM)”; for `COc1ccc2cc(C(=O)NS(=O)(=O)c3cccc(N)c3)n(Cc3c(C)cccc3C)c2c1` [Compound 116, N-(3-aminophenyl)sulfonyl-1-[(2,6-dimethylphenyl)methyl]-6-methoxy-indole-2-carboxamide]: “++ (“++” means between 3 uM and 10 uM)”.
As for `Cc1ccc(F)c(-c2ccc(C(=O)NS(=O)(=O)N3CC[C@H](N)C3)c(N3C[C@@H](C)CC3(C)C)n2)c1` [Compound 2016, N-[(3S)-3-aminopyrrolidin-1-yl]sulfonyl-6-(2-fluoro-5-methyl-phenyl)-2-[(4S)-2,2,4-trimethylpyrrolidin-1-yl]pyridine-3-carboxamide], under setting [2], the EC30 is 3000 to 10000 nM.
On the same count and under the same terms, next, `CC1CN(c2ncccc2C(=O)NS(=O)(=O)c2cccc(OCC3COc4ccccc4C3)n2)C(C)(C)C1` (stereo not drawn) [Compound 2595, N—[[6-(chroman-3-ylmethoxy)-2-pyridyl]sulfonyl]-2-(2,2,4-trimethylpyrrolidin-1-yl)pyridine-3-carboxamide]: < 3000 nM.
In the case of `Cc1cc(C)c(Oc2nc(C(C)(C)C)ccc2C(=O)NS(=O)(=O)c2cccc(N)c2)c(C#N)c1` [Compound 221, N-(3-aminophenyl)sulfonyl-6-tert-butyl-2-(2-cyano-4,6-dimethyl-phenoxy)pyridine-3-carboxamide], under setting [1], the EC30 result is “+++ (“+++” means <3 uM)”.
The same measure, in the same setting: next, `CC(C)COc1cc(F)cc(-c2ccc(C(=O)NS(=O)(=O)c3cccc(N)n3)c(N(C)C3CCC3)n2)c1` [Compound 683, N-[(6-amino-2-pyridyl)sulfonyl]-2-[cyclobutyl(methyl)amino]-6-(3-fluoro-5-isobutoxy-phenyl)pyridine-3-carboxamide]: “+++ (“+++” means <3 uM)”.
